Laboratory results as given in patent US8247533B2, “Beta helical peptide structures stable in aqueous and non-aqueous media” (The United States of America, as represented by the …, priority 2007, dated 2012).
Converted amounts (≈) assume the structure as drawn. Peptide text beside a SMILES is read from it.

Key:
[1] = Circular dichroism (CD) thermal denaturation study; type: physicochemical
Text: (§1) The water solubility of these peptides/peptidometrics is defined by the correct choice of sidechain functionalities.

physchem = conditions: aqueous medium
Text: as §1

[2] = Solubility in organic solvents (purification work); type: physicochemical
Experimental: However, dissolution of the crude peptide in HFIP at a concentration of about 80 mg mL^−1, followed by twofold dilution with HFA.3H2O, furnished a solution that was suitable for use in RP-HPLC.
The next attempt to repurify fraction a of the RP-HPLC purified material using gravity-driven GPC on Sephadex LH-20. These efforts were complicated by the lack of a suitable pure solvent that would satisfy the following criteria: (1) the solvent must be able to dissolve the partially purified peptide, and (2) the solvent must be sufficiently polar to prevent irreversible adsorption of the peptide to the LH-20 stationary phase. One choice was CHCl3, in which the peptide is soluble to about. 20 mM; CHCl3, however, is a nonpolar solvent. Moreover, CHCl3 is denser than LH-20 and therefore inconvenient for GPC using gravity-driven flow. However, the solvent mixture CHCl3/MeOH (65:35) satisfies both of the criteria stated above; in addition, this mixture is less dense than LH-20. A single pass of fraction a through a 2.5×55 cm column of LH-20 in CHCl3/MeOH gave material that was ≧95% pure as estimated by 1D ^1H NMR (FIG. 9c). Furthermore, even fraction b of the RP-HPLC-purified material, which contained about 30% contaminant (FIG. 9b), could be purified in this manner. […]

Compound | change of beta-hairpin structure (CD) with temperature ([1]; aqueous state, 100 mM phosphate buffered saline buffer, about 5° C. to about 95° C.) | temperature up to which helical structure resists thermal denaturation (CD) ([1]; in methanol and trifluoroethanol) | solubility (physchem) [mM] | solubility ([2]; CHCl3, partially purified peptide) [mM] | solubility in solvents typically used for RP-HPLC ([2]; crude peptide, MeOH, EtOH, i-PrOH, and CH3CN)
CC(C)C[C@H]1NC(=O)CNC(=O)[C@@H]2CCCN2C(=O)[C@@H](C)NC(=O)[C@H]([C@@H](C)O)NC(=O)[C@@H](CC(C)C)NC(=O)[C@H]([C@@H](C)O)NC(=O)[C@@H](C(C)C)NC(=O)[C@H](CCCCN)NC(=O)[C@@H](CC(C)C)NC(=O)[C@H](CCC(=O)O)NC(=O)[C@@H](C)NC(=O)CNC(=O)[C@@H]2CCCN2C(=O)[C@@H](C(C)C)NC(=O)[C@H]([C@@H](C)O)NC(=O)[C@@H](C)NC(=O)[C@H]([C@@H](C)O)NC(=O)[C@@H](CC(C)C)NC(=O)[C@H](CCCNC(=N)N)NC(=O)[C@@H](C(C)C)NC(=O)[C@H](CCC(=O)O)NC1=O [Peptide 1] (HELM PEPTIDE1{[dL].E.[dV].R.[dL].T.[dA].T.[dV].P.G.[dA].E.[dL].K.[dV].T.[dL].T.[dA].P.G}$PEPTIDE1,PEPTIDE1,1:R1-22:R2$$$V2.0) | does not change | up to 85 °C | > 10 |  | 
CC(C)[C@@H]1NC(=O)CNC(=O)[C@H]2CCCN2C(=O)[C@H](C(C)C)NC(=O)[C@@H](C(C)C)NC(=O)[C@H](C(C)C)NC(=O)[C@@H](C(C)C)NC(=O)[C@H](C(C)C)NC(=O)[C@@H](C(C)C)NC(=O)[C@H](C(C)C)NC(=O)[C@@H](C(C)C)NC(=O)[C@H](C(C)C)NC(=O)CNC(=O)[C@H]2CCCN2C(=O)[C@H](C(C)C)NC(=O)[C@@H](C(C)C)NC(=O)[C@H](C(C)C)NC(=O)[C@@H](C(C)C)NC(=O)[C@H](C(C)C)NC(=O)[C@@H](C(C)C)NC(=O)[C@H](C(C)C)NC(=O)[C@@H](C(C)C)NC1=O [Peptide 3, cyclo{[(L-Val-D-Val)4-(L-Val-D-Pro-Gly)]2-}] (HELM PEPTIDE1{V.[dP].G.V.[dV].V.[dV].V.[dV].V.[dV].V.[dP].G.V.[dV].V.[dV].V.[dV].V.[dV]}$PEPTIDE1,PEPTIDE1,1:R1-22:R2$$$V2.0) |  |  |  | ~20 (≈ 41.9 mg/mL) | insoluble
